From patent US6890533B2, “Betulinol derivatives” (Cornell Research Foundation, Inc., priority 1997, dated 2005)

Assays:
[1] = test system: WALKER-CARCINOMA (carcinosarcoma); experiment: anti-carcinogenic activity in rats implanted with Walker carcinoma; assay type: in vivo, white rats; details: for ALL, % of control / ALL (Average length of life) / % cured: rats; for ALL (Average length of life): injected daily for 5 days; for % cured: cured rats lived over two months after implantation
Protocol: The anti-carcinogenic activity of betulinol biacetate and betulonic aldehyde was assessed using 117-120 gram white rats implanted with worker's carcinoma and 21-23 gram white mice with artificially transplanted Ehrlich's tumor.
Solutions of 2.5% betulonic aldehyde and 0.05% betulinol biacetate were prepared in 10% polyvinylpyrrolidone containing Tween-80 (a sorbitan mono-9-octadecenate poly(oxy-1,2-ethanediyl)) stabilizer.
Mice were injected with 0.1-0.2 ml of either betulinol biacetate or betulonic aldehyde solution daily, starting 24 hours after transplantation, for the following 5 days. Rats were injected with 1.2 ml of either betulinol biacetate or betulonic aldehyde solution daily, starting 24 hours after implantation, for the following 5 days. Animals in control groups received the same amount of a 10% solution of polyvinylpyrrolidone.
The anti-tumor effect of betulinol acetate or betulonic aldehyde was determined by measuring the volume of the tumor on the 10th day after implantation. An average length of life (“ALL”) was calculated for each of the deceased animals. In addition, the percentage of cured rats was also determined.
The volume of the tumor was measured and calculated as a multiple of the quadrate of its similar diameter by the greater diameter. Thus, the effect was expressed as a ratio (“E/C”), in percent, of the tumor volume in rats treated with betulinol acetate or betulonic aldehyde (“E”) and the tumor volume in control rats (“C”). The effect of betulinol acetate or betulonic aldehyde on ALL was evaluated the same way.

[2] = BBA solubility in organic solvents; assay type: physicochemical; details: for BBA Mass Content, %, at 20° C.: mass % in organic solvent
Protocol: Studies of betulinol biacetate solubility were conducted in order to determine the appropriate solvent for product crystallization and purification.

[3] = Group 1, Dose/day 204.6 (mg/kg body weight)
[4] = Group 2, Dose/day 106.9 (mg/kg body weight)

## C=C(C)[C@@H]1CC[C@]2(COC(C)=O)CC[C@]3(C)[C@H](CC[C@@H]4[C@@]5(C)CC[C@H](OC(C)=O)C(C)(C)[C@@H]5CC[C@]43C)[C@@H]12 [Betulinol diacetate, Betulinol Biacetate]
[1]; [3]
  ALL, % of control: 131.3%
  ALL (Average length of life): 28.5 days
  % cured: 50.0%
[1]; [4]
  ALL, % of control: 200.5%
  ALL (Average length of life): 43.5 days
  % cured: 67.0%
[1]; tumor volume on the 10th day, versus control group
  rate of the tumor growth inhibited, of the control group: 55.2%
[2]; Benzene
  BBA Mass Content, %, at 20° C.: 100%
[2]; Butanol, T 95 ° C.
  BBA Mass Content, %, at T (° C.): 100%
[2]; Chloroform
  BBA Mass Content, %, at 20° C.: 100%
[2]; Dimethylsulfoxide
  BBA Mass Content, %, at 20° C.: 30%
[2]; Dimethylsulfoxide, T 189 ° C.
  BBA Mass Content, %, at T (° C.): 100%
[2]; Dioxane, T 101 ° C.
  BBA Mass Content, %, at T (° C.): 100%
[2]; Hexane
  BBA Mass Content, %, at 20° C.: 15%
[2]; Toluene
  BBA Mass Content, %, at 20° C.: 100%
